Consider 23 compounds from patent US10954228B2 (NATIONAL INSTITUTES OF HEALTH, UNITED STATES DEPARTMENT OF …, priority 2016, dated 2021).

Each structure is given as a SMILES string.

The test concerns the target Human LDHA (Homo sapiens (Human), UniProt P00338). Kind of test: human LDHA primary biochemical assay. The settings on record: biochemical LDHA inhibitory activity, assay of Example 1; activity level classes defined in nM. The text has this:
This example describes a human LDHA primary biochemical assay employed in the characterization of a compound of formula (I) in an embodiment of the invention.
Test compounds were placed in a Greiner Bio-One (Monroe, N.C.) 1536-well black solid bottom assay plate. 200 millimolar (mM) Tris HCl, pH 7.4, 100 micromolar (μM) EDTA and 0.01% TWEEN-20™, final concentration, was used as the assay buffer. The LDHA reagent was 2 nanomolar (nM) Human LDHA (Meridian Life Science, Inc., Memphis, Tenn.), final concentration, in assay buffer. The substrate reagent was 0.06 mM NADH and 0.2 mM sodium pyruvate, final concentration, in assay buffer. The resazurin/diaphorase coupling reagent was 0.037 mM resazurin and 0.133 milligrams per milliliter (mg/mL) diaphorase, final concentration, in assay buffer. The inhibition of LDHA activity was measured by fluorescence emission.
Compound `CCc1cc(-c2cc(-c3nn(-c4nc(C(=O)O)cs4)c(CC4CC4)c3Cc3ccc(S(N)(=O)=O)c(F)c3)ccc2F)ccc1OC` [Compound 186, 2-(5-(cyclopropylmethyl)-3-(3′-ethyl-6-fluoro-4′-methoxy-[1,1′-biphenyl]-3-yl)-4-(3-fluoro-4-sulfamoylbenzyl)-1H-pyrazol-1-yl)thiazole-4-carboxylic acid] returned an IC50 of 100 to 1000 nM.
Take `NS(=O)(=O)c1ccc(Cc2c(-c3cccc(-c4ccc(CC(F)(F)F)cc4)c3)nn(-c3nc(C(=O)O)cs3)c2CC2CC2)cc1F` [Compound 187, 2-(5-(cyclopropylmethyl)-4-(3-fluoro-4-sulfamoylbenzyl)-3-(4′-(2,2,2-trifluoroethyl)-[1,1′-biphenyl]-3-yl)-1H-pyrazol-1-yl)thiazole-4-carboxylic acid]: the IC50 fell in the range of 100 to 1000 nM.
Turning to `NS(=O)(=O)c1ccc(Cc2c(-c3cccc(-c4nc5ccccc5[nH]4)c3)nn(-c3nc(C(=O)O)cs3)c2CC2CC2)cc1F` [Compound 189, 2-(3-(3-(1H-benzo[d]imidazol-2-yl)phenyl)-5-(cyclopropylmethyl)-4-(3-fluoro-4-sulfamoylbenzyl)-1H-pyrazol-1-yl)thiazole-4-carboxylic acid], the concentration for half-maximal inhibition (IC50) is less than 100 nM.
As to `COc1ccc(-c2cc(-c3nn(-c4nc(C(=O)O)cs4)c(CC4CC4)c3Cc3ccc(S(N)(=O)=O)c(F)c3)ccc2F)cc1Cl` [Compound 191, 2-(3-(3′-chloro-6-fluoro-4′-methoxy-[1,1′-biphenyl]-3-yl)-5-(cyclopropylmethyl)-4-(3-fluoro-4-sulfamoylbenzyl)-1H-pyrazol-1-yl)thiazole-4-carboxylic acid], the IC50 was less than 100 nM.
For the compound `CC(C)(C)c1cccc(-c2cc(-c3nn(-c4nc(C(=O)O)cs4)c(CC4CC4)c3Cc3ccc(S(N)(=O)=O)c(F)c3)ccc2F)c1` [Compound 192, 2-(3-(3′-(tert-butyl)-6-fluoro-[1,1′-biphenyl]-3-yl)-5-(cyclopropylmethyl)-4-(3-fluoro-4-sulfamoylbenzyl)-1H-pyrazol-1-yl)thiazole-4-carboxylic acid], the IC50 fell in the range of 100 to 1000 nM.
Regarding `CC(C)(C)c1ccc(-c2cc(-c3nn(-c4nc(C(=O)O)cs4)c(CC4CC4)c3Cc3ccc(S(N)(=O)=O)c(F)c3)ccc2F)cc1` [Compound 193, 2-(3-(4′-(tert-butyl)-6-fluoro-[1,1′-biphenyl]-3-yl)-5-(cyclopropylmethyl)-4-(3-fluoro-4-sulfamoylbenzyl)-1H-pyrazol-1-yl)thiazole-4-carboxylic acid], the half-maximal inhibitory concentration (IC50) was in the range of 100 to 1000 nM.
Under `CN(C)c1cccc(-c2cc(-c3nn(-c4nc(C(=O)O)cs4)c(CC4CC4)c3Cc3ccc(S(N)(=O)=O)c(F)c3)ccc2F)c1` [Compound 194, 2-(5-(cyclopropylmethyl)-3-(3′-(dimethylamino)-6-fluoro-[1,1′-biphenyl]-3-yl)-4-(3-fluoro-4-sulfamoylbenzyl)-1H-pyrazol-1-yl)thiazole-4-carboxylic acid] stands less than 100 nM.
With `Cc1cc(-c2cc(-c3nn(-c4nc(C(=O)O)cs4)c(CC4CC4)c3Cc3ccc(S(N)(=O)=O)c(F)c3)ccc2F)ccc1F` [Compound 195, 2-(5-(cyclopropylmethyl)-3-(4′,6-difluoro-3′-methyl-[1,1′-biphenyl]-3-yl)-4-(3-fluoro-4-sulfamoylbenzyl)-1H-pyrazol-1-yl)thiazole-4-carboxylic acid], the IC50 is less than 100 nM.
The same measure for `Cc1ccc(-c2cccc(-c3nn(-c4nc(C(=O)O)cs4)c(CC4CC4)c3Cc3ccc(S(N)(=O)=O)c(F)c3)c2)cc1` [Compound 198, 2-(5-(cyclopropylmethyl)-4-(3-fluoro-4-sulfamoylbenzyl)-3-(4′-methyl-[1,1′-biphenyl]-3-yl)-1H-pyrazol-1-yl)thiazole-4-carboxylic acid]: less than 100 nM.
Under `N#Cc1cccc(-c2cc(-c3nn(-c4nc(C(=O)O)cs4)c(CC4CC4)c3Cc3ccc(S(N)(=O)=O)c(F)c3)ccc2F)c1` [Compound 200, 2-(3-(3′-cyano-6-fluoro-[1,1′-biphenyl]-3-yl)-5-(cyclopropylmethyl)-4-(3-fluoro-4-sulfamoylbenzyl)-1H-pyrazol-1-yl)thiazole-4-carboxylic acid] stands less than 100 nM; under `N#Cc1ccc(-c2cc(-c3nn(-c4nc(C(=O)O)cs4)c(CC4CC4)c3Cc3ccc(S(N)(=O)=O)c(F)c3)ccc2F)cc1` [Compound 201, 2-(3-(4′-cyano-6-fluoro-[1,1′-biphenyl]-3-yl)-5-(cyclopropylmethyl)-4-(3-fluoro-4-sulfamoylbenzyl)-1H-pyrazol-1-yl)thiazole-4-carboxylic acid], less than 100 nM.
Under `NS(=O)(=O)c1ccc(Cc2c(-c3ccc(F)c(N4CCCC4=O)c3)nn(-c3nc(C(=O)O)cs3)c2CC2CC2)cc1F` [Compound 202, 2-(5-(cyclopropylmethyl)-3-(4-fluoro-3-(2-oxopyrrolidin-1-yl)phenyl)-4-(3-fluoro-4-sulfamoylbenzyl)-1H-pyrazol-1-yl)thiazole-4-carboxylic acid] stands less than 100 nM; under `Cc1ccc(-c2cccc(-c3nn(-c4nc(C(=O)O)cs4)c(CC4CC4)c3Cc3ccc(S(N)(=O)=O)c(F)c3)c2)nc1` [Compound 203, 2-(5-(cyclopropylmethyl)-4-(3-fluoro-4-sulfamoylbenzyl)-3-(3-(5-methylpyridin-2-yl)phenyl)-1H-pyrazol-1-yl)thiazole-4-carboxylic acid], less than 100 nM; under `Cc1ccc(-c2cccc(-c3nn(-c4nc(C(=O)O)cs4)c(CC4CC4)c3Cc3ccc(S(N)(=O)=O)c(F)c3)c2)cn1` [Compound 204, 2-(5-(cyclopropylmethyl)-4-(3-fluoro-4-sulfamoylbenzyl)-3-(3-(6-methylpyridin-3-yl)phenyl)-1H-pyrazol-1-yl)thiazole-4-carboxylic acid], less than 100 nM.
Compound `NS(=O)(=O)c1ccc(Cc2c(-c3cccc(-c4ccc(C(F)(F)C(F)(F)F)cc4)c3)nn(-c3nc(C(=O)O)cs3)c2CCC2CC2)cc1F` [Compound 205, 2-(5-(2-cyclopropylethyl)-4-(3-fluoro-4-sulfamoylbenzyl)-3-(4′-(perfluoroethyl)-[1,1′-biphenyl]-3-yl)-1H-pyrazol-1-yl)thiazole-4-carboxylic acid] displayed an IC50 of 100 to 1000 nM.
With `CC(C)c1ccc(-c2cccc(-c3nn(-c4nc(C(=O)O)cs4)c(CCC4CC4)c3Cc3ccc(S(N)(=O)=O)c(F)c3)c2)cc1` [Compound 206, 2-(5-(2-cyclopropylethyl)-4-(3-fluoro-4-sulfamoylbenzyl)-3-(4′-isopropyl-[1,1′-biphenyl]-3-yl)-1H-pyrazol-1-yl)thiazole-4-carboxylic acid], the IC50 is 100 to 1000 nM.
`CC(C)Cc1ccc(-c2cccc(-c3nn(-c4nc(C(=O)O)cs4)c(CCC4CC4)c3Cc3ccc(S(N)(=O)=O)c(F)c3)c2)cc1` [Compound 207, 2-(5-(2-cyclopropylethyl)-4-(3-fluoro-4-sulfamoylbenzyl)-3-(4′-isobutyl-[1,1′-biphenyl]-3-yl)-1H-pyrazol-1-yl)thiazole-4-carboxylic acid] showed an IC50 of 100 to 1000 nM.
`Cc1ccc(-c2ccc(-c3cccc(-c4nn(-c5nc(C(=O)O)cs5)c(CC5CC5)c4Cc4ccc(S(N)(=O)=O)c(F)c4)c3)cc2)s1` [Compound 208, 2-(5-(cyclopropylmethyl)-4-(3-fluoro-4-sulfamoylbenzyl)-3-(4′-(5-methylthiophen-2-yl)-[1,1′-biphenyl]-3-yl)-1H-pyrazol-1-yl)thiazole-4-carboxylic acid] showed an IC50 of 100 to 1000 nM.
Compound `Cc1ccc(-c2ccc(-c3cc(-c4nn(-c5nc(C(=O)O)cs5)c(CC5CC5)c4Cc4ccc(S(N)(=O)=O)c(F)c4)ccc3F)cc2)s1` [Compound 209, 2-(5-(cyclopropylmethyl)-3-(6-fluoro-4′-(5-methylthiophen-2-yl)-[1,1′-biphenyl]-3-yl)-4-(3-fluoro-4-sulfamoylbenzyl)-1H-pyrazol-1-yl)thiazole-4-carboxylic acid] showed an IC50 of 100 to 1000 nM.
Consider `CC(C)c1ccc(-c2cncc(-c3nn(-c4nc(C(=O)O)cs4)c(CC4CC4)c3Cc3ccc(S(N)(=O)=O)c(F)c3)c2)cc1` [Compound 210, 2-[5-(cyclopropylmethyl)-4-[(3-fluoro-4-sulfamoylphenyl)methyl]-3-[5-(4-isopropylphenyl)pyridin-3-yl]pyrazol-1-yl]-1,3-thiazole-4-carboxylic acid], for which the IC50 is less than 100 nM.
The same measure for `CC(C)c1ccc(-c2cccc(-c3nn(-c4nc(C(=O)O)cs4)c(CC4CC4)c3Cc3ccc(S(N)(=O)=O)c(F)c3)n2)cc1` [Compound 211, 2-[5-(cyclopropylmethyl)-4-[(3-fluoro-4-sulfamoylphenyl)methyl]-3-[6-(4-isopropylphenyl)pyridin-2-yl]pyrazol-1-yl]-1,3-thiazole-4-carboxylic acid]: 100 to 1000 nM.
`NS(=O)(=O)c1ccc(Cc2c(-c3ccc(F)c(-c4ccc(C5CC5)c(F)c4)c3)nn(-c3nc(C(=O)O)cs3)c2CC2CC2)cc1F` [Compound 212, 2-{3-[3-(4-cyclopropyl-3-fluorophenyl)-4-fluorophenyl]-5-(cyclopropylmethyl)-4-[(3-fluoro-4-sulfamoylphenyl)methyl]pyrazol-1-yl}-1,3-thiazole-4-carboxylic acid] gave an IC50 of 100 to 1000 nM.
`Cc1cc(-c2cc(-c3nn(-c4nc(C(=O)O)cs4)c(CC4CC4)c3Cc3ccc(S(N)(=O)=O)c(F)c3)ccc2F)ccc1C(C)C` [Compound 213, 2-[5-(cyclopropylmethyl)-3-[4-fluoro-3-(4-isopropyl-3-methylphenyl)phenyl]-4-[(3-fluoro-4-sulfamoylphenyl)methyl]pyrazol-1-yl]-1,3-thiazole-4-carboxylic acid] had a 50% inhibitory concentration (IC50) of less than 100 nM.
